Our source for the melting point values is a melting point compilation (Tetko et al.; mined from patent text by program, amines drawn as free bases though some values may be those of a salt).

By melting point is commonly meant the temperature, or range, at which the solid turns liquid.

For the molecule `COC1(c2cccc(OCc3ccc(-n4cnc(C)c4)cc3)c2)CCOCC1`, the melting point lay in the range of 120 to 121 °C.
In the case of `Nc1ccccc1C(=O)COC(=O)c1ccccc1` it was 125 °C.
As to `CC(C)(C)OC(=O)n1ccc2cc([N+](=O)[O-])ccc21`, the melting point was in the range of 135 to 137 °C.
In the case of `C=C=CN(C(=O)c1ccco1)c1c(C)cccc1C`, the melting point was in the range of 138 to 141 °C.
In the case of `CCCc1nn(C)c2c(=O)n(CCOc3ccc(CC(OCC)C(=O)O)cc3)c(CC)nc12` (single isomer, unassigned; (+)) it was 144 to 145 °C.
The molecule `CC(C)(Cc1c[nH]c2ccc(Br)cc12)[N+](=O)[O-]` came in with a melting point of 106 to 109 °C.
The figure for `CN1C2CCC1CC(NC(=O)OC(C)(C)C)C2` (stereo not given) is 79 to 81 °C; for `Cc1ccc(-n2nc(O)c3[nH]c4cc(Cl)cc(Cl)c4c(=O)c3c2=O)c(C)c1` it is 335 to 336 °C; for `NC(=O)c1cc(-c2cccc(Cl)c2)sc1N` it is 190 to 192 °C.
The figure for `O=C1COc2ccc(N3C(=O)C4=C(CCCC4)C3=O)cc2N1CC1CCOCC1` is 187 to 189 °C.
The figure for `CC1CCC(C(C)C)C(OC(=O)N2CC3CC(C2)CN(C(=O)C2(O)NCCC2Oc2ccc(C#N)cc2)C3)C1` (single isomer, unassigned; (-)) is 111 to 112 °C; for `CCc1c(CC)n(Cc2ccccc2Cl)c2cc(C(N)=O)ccc12` it is 185 to 188 °C; for `COc1ccc2c(c1)OCC(c1ccc(F)cc1)C2c1ccc(OCCN2CCCCC2)cc1` (stereo not given) it is 93.5 to 94.5 °C.
For `O=C(NC(=O)c1c(Cl)cccc1Cl)Nc1ccc(-c2ccccc2)cn1`, the melting point was in the range of 221 to 231 °C.
`Cc1ccc(CN2C(=O)c3cccc4cccc2c34)cc1` displayed a melting point of 108 to 110 °C.
On to `Cc1ccc2c(c1)C(=O)N1CCN=C1N2N1CCCCC1`, for which the melting point was 197 to 199 °C.
In the case of `COc1ccc2c(ccn2Cc2ccccc2Br)n1` it was 86 to 87 °C; in that of `CCCCC(=O)Nc1c(OC)cccc1[N+](=O)[O-]`, 113 to 114 °C.
In the case of `O=[N+]([O-])c1ccc2c(c1)S(=O)(=O)NCN2CCF` it was 165 to 166 °C; in that of `N#CC[C@@H](O)CC(=O)NN`, 134 to 136 °C; in that of `CCOC(=O)[C@@H]1CSCCCCCCCC(CSC(C)=O)C(=O)N1` (stereo not given in full), 193 to 196 °C.
The figure for `c1ccc(-c2nn3c(c2-c2nc4ccccc4[nH]2)CCC3)nc1` is 172 to 175 °C.
The molecule `Cc1oncc1C(=O)Nc1ccc(NC(=O)CBr)cc1` displayed a melting point of 179 °C.
The figure for `CC1(C)CC(S(=O)(=O)C(F)c2c(F)cccc2F)=NO1` (stereo not given) is 88 °C; for `COc1ccc2cc(C(C)COS(N)(=O)=O)ccc2c1` (stereo not given) it is 112 to 115 °C; for `COCCOc1ccc(CO)c(Oc2ncc(C(F)(F)F)cc2Cl)c1` it is 85 to 85.5 °C.
The figure for `CCOC(=O)N1CCN(c2ccc(C3=NNC(=O)CC3C)cc2[N+](=O)[O-])CC1` (stereo not given) is 140 to 142 °C; for `CC1=CC(=O)C(N)=CC1=N` it is 205 °C.
In the case of `CC(C)(C)c1cc(-c2nnc(NC(N)=S)s2)cc(C(C)(C)C)c1O` it was above 80 °C.
In turn, `Cc1cc(NS(=O)(=O)c2ccc(Cl)cc2)cc(C)c1S(=O)(=O)C[N+](=O)[O-]` registered a melting point of 160 to 162 °C.
The figure for `CCCCOC(=O)C(COC(C)(C)C)NC(=O)c1ccc2c(Cl)cnc(NC(=N)N)c2c1` (racemic) is 215 to 219 °C; for `O=C1N(Cc2nc3ccccc3s2)c2ccccc2C12COc1cc3c(cc12)OCCO3` (stereo not given) it is 164 to 166 °C; for `CN(C)C(=N)Nc1ccccc1-c1cccc(F)c1` it is 109 to 110 °C.
In the case of `COc1c(C)cc(-c2cncc(OC3SCC(O)C(O)C3O)c2)cc1C` (stereo not given) it was 173 °C; in that of `CC(=O)NNC(=O)c1cccc(I)c1`, 156 to 158 °C; in that of `COc1ccc2cc(-c3cc4ccccc4o3)ccc2c1`, 194 to 195 °C.
In the case of `COc1cc(Oc2cccc(C(F)(F)F)c2)nc(C(=O)NN=CCC#N)c1`, the melting point was 98 to 100 °C.
With `COc1ccc(CN(CC(=O)O)c2nc(NC(=O)Nc3ccccc3OC)nc(Nc3ccccc3-c3ccccc3)n2)cc1`, the melting point lay within 147 to 149 °C.
The figure for `CSc1sc(-c2ccn(S(C)(=O)=O)n2)c2c1C(=O)CC(C)(C)C2` is 193 to 195 °C.
In the case of `CN1CCN=C(c2ccccc2)c2cc([N+](=O)[O-])ccc21` it was 186 to 187 °C.
In the case of `O=C(O)c1ccc2nc3c(c(=O)n2c1)CCC3=Cc1cccc(O)c1` it was above 320 °C; in that of `CN(C)c1ccc2nc(-c3c[nH]c4ccccc34)[nH]c(=O)c2c1`, above 300 °C.
Regarding `COc1ccc(-c2c(Cl)ncnc2NS(=O)(=O)c2ccc(C(C)C)cc2)cc1`, the melting point lay within 181 to 182 °C.
Turning to `O=Cc1ccc(OCc2ccccc2)c(OC2CCCC2)c1`, the melting point lay in the range of 55 to 56 °C.
In the case of `CC(=O)OCCCCCCSCC(=O)c1ccc2c(c1)CC(=O)N2` it was 86 to 87 °C; in that of `CC(C)NC(=O)OCC(=O)c1ccccc1`, 108 to 110 °C; in that of `c1csc(-c2ncc(COc3ccc(CCCn4ccnc4)cc3)s2)c1`, 112 to 113 °C.
In the case of `COc1ccc(C(=O)O)c2cccc(S(=O)(=O)N(C)C)c12` it was 220 to 221 °C; in that of `O=C(O)C(=O)c1ccc(OCCOC2CCCCCCC2)cc1`, 64 to 65 °C; in that of `CC(C)(C)NC(=O)[C@@H]1C[C@H](Cl)CN1C(=O)[C@@H](O)[C@H](Cc1ccccc1)NC(=O)[C@H](CC(N)=O)NC(=O)c1cnc2ccccc2n1`, 132 to 134 °C.
Regarding `O=C(NO)C(=O)Nc1ccccc1`, the melting point was 165 to 167 °C.
The molecule `N#Cc1ccc(Cc2cccnc2)cc1` showed a melting point of 155 to 157 °C.
The figure for `FC(F)(F)c1ccc(Cl)cn1` is 36 to 37 °C; for `COc1cc(C2(OC)CCOCC2)ccc1OCc1ccc2ccccc2c1` it is 129 °C; for `COc1cnc(CO)cc1OC1CCCC1` it is 93 to 94.5 °C.
In the case of `CNc1nc(-c2ccccc2)ccc1[N+](=O)[O-]` it was 98 to 99 °C; in that of `CCCCc1ccc(C(=O)NCc2c[nH]c(=S)n2[C@H]2CCc3c(F)cc(F)cc3C2)cc1`, 242 to 243 °C.
The figure for `Nc1nc2c(sc(=O)n2CCCCO)c(=O)[nH]1` is 258 to 260 °C; for `Cc1[nH]c(C=O)c(C)c1CCCCO` it is 99 °C; for `Nn1c(=O)n(-c2cc(Cl)ccc2O)c2ccc(C(F)(F)F)cc21` it is 228 to 230 °C.
The molecule `Cc1ccc(S(=O)(=O)N2CCC3(C=Cc4ccccc43)CC2)cc1` yielded a melting point of 168 to 170 °C.
The figure for `COc1cc(C=C2C(=O)CCc3ccccc32)c([N+](=O)[O-])cc1OC` is 58 to 60 °C.
In the case of `CS(=O)(=O)Oc1ccc(Oc2ccccc2)cc1CC(=O)O` it was 121 °C; in that of `O=C(CC1CSCCC1=O)c1ccc(Br)cc1` (stereo not given), 87.5 to 89.5 °C; in that of `CC(C)n1nc(-c2c(-c3ccccc3)nn3ccc(N4CCN(C(=O)N(C)C)CC4)cc23)ccc1=O`, 160 to 161 °C.
`CSc1ccc(-c2nc3[nH]nc(N)c3c(=O)n2-c2ccc(C)cc2)cc1` displayed a melting point above 285 °C.
The figure for `Fc1ccc(COc2ncc(F)c(NCc3ccccc3F)n2)cc1` is 83 to 84 °C; for `CC(=O)Oc1ccc2c(c1)Sc1cc(N(C)C)ccc1N2C(C)=O` it is 124 to 128 °C; for `C[C@@H](C(N)=O)c1ccc(NS(=O)(=O)c2ccc(Cl)cc2)cc1` it is 150 to 153 °C.
In the case of `CNC(=O)NCCn1c(-c2ccc(CN3C(C)COCC3C)cc2)csc1=Nc1ccc(F)c(C)c1` (stereo not given) it was 116 to 119 °C; in that of `CCCCc1nc(SC)c(Br)n1Cc1ccc(-c2ccccc2S(=O)(=O)N=CN(C)C)cc1`, 158 °C.
The figure for `O=Cc1cn(Cc2cc(OCc3ccccc3)cc(OCc3ccccc3)c2)cc1-c1ccccc1` is 117 to 118 °C.
As to `CCOC(=O)c1ccc2oc3ncccc3c(=O)c2c1`, the melting point was in the range of 131 to 132 °C.
`CCCn1c(CCO)nc(C(C)C)c1Sc1cc(Cl)cc(Cl)c1`: the melting point lay in the range of 88 to 89 °C.
In the case of `Cc1noc(NS(=O)(=O)c2ccccc2-c2ccc(-c3ncco3)cc2CN2CCN(c3ccccc3)C2=O)c1C` it was 140 to 150 °C.
In turn, `C/C(=C\c1ccc(C(C)(C)C)cc1)CNc1cccc(-c2ccnc3c(C(=O)c4cccs4)cnn23)c1` gave a melting point of 135 to 137 °C.
The figure for `CC(C)C1(C)N=C2c3ncccc3C(=O)N2C1=O` (stereo not given) is 125 to 128 °C; for `CCCCCCCCCCCCCCCCCC(=O)OCCCCCCCCCCCCCC` it is 40 °C; for `CNC(=O)NS(=O)(=O)c1cccc2c1OS(=O)(=O)C(C)C2` (stereo not given) it is 235 to 238 °C.
In the case of `O=c1[nH]c2nc(Cl)nc(Cl)c2s1` it was 191 to 192 °C; in that of `O=C(C=Cc1ccccc1)OCC#CC#CCOC(=O)C=Cc1ccccc1`, 102 to 104 °C.
The figure for `CCC1(Cl)C(=O)c2c(cc(OCC(=O)O)c(Cl)c2Cl)C1c1ccccc1` (stereo not given) is 190 to 192 °C; for `COc1cc(COc2cc(CCc3ccccn3)n(-c3ccccc3)n2)ccc1OCc1nc(-c2ccco2)oc1C` it is 104 to 105 °C; for `Cc1nc2c(c(N)c1C(=O)O)c1ccccc1n2C` it is 230 to 232 °C.
Consider `CC(=O)c1ccc(Oc2ccc(F)cc2)cc1`, for which the melting point was in the range of 65 to 67 °C.
Turning to `COC(=O)c1ccc(Cc2cc3cc(Cl)ccc3n2S(C)(=O)=O)cc1`, the melting point was 143 °C.
In the case of `C=C(CC1(C)C(=O)c2ccc(Cl)cc2C1=O)c1cccc(Cl)n1` (stereo not given) it was 72 to 73 °C.
In the case of `CCn1ncc2c(Cl)c3c(nc21)C(=O)c1ccccc1CC3` it was 156 to 159 °C; in that of `COc1ccc(-c2cnc(S)nc2-c2ccc(OC)cc2)cc1`, 188 to 191 °C.
In the case of `CCOC(=O)CNc1c(C)cc(C(O)(C(F)(F)F)C(F)(F)F)cc1C` it was 91 to 93 °C.
